Results taken from patent US8859557B2, “Substituted oxindole derivatives and their use as vasopressin receptor ligands” (Abbott GmbH & Co. KG, priority 2006, dated 2014).
Structures can show the parent of a compound that is named as a salt.

What was measured:
[1] = biological target: T1, human vasopressin V1b receptor (Homo sapiens, UniProt P47901); assay: Vasopressin V1b receptor binding assay; details: displacement of 3H-AVP, membranes of CHO-K1 cells with human V1b receptor
T1 construct: expressed in transfected cells; host or cells: CHO-K1 (cell line hV1b-3H2_CHO), membrane preparation
T1 sequence (P47901 1-424): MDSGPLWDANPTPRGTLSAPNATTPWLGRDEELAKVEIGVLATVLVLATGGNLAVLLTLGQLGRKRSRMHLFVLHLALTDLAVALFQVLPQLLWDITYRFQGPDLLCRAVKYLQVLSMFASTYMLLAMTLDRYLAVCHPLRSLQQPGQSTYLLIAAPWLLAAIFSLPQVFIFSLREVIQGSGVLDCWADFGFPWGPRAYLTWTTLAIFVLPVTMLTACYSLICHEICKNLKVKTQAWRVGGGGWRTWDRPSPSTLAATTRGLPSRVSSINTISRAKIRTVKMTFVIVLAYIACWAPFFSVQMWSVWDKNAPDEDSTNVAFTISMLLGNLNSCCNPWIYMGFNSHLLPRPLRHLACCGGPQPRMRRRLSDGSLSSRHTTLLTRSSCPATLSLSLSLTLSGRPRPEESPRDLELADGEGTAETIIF
Procedure: Methods for Determining the Biological Activity Vasopressin V1b Receptor Binding Assay: Substances:
This series of DMSO predilutions was diluted 1:10 with assay buffer. The substance concentration was again diluted 1:5 in the assay mixture (2% DMSO in the mixture).
All determinations were carried out as triplicate determinations.

[2] = biological target: T2, recombinant human oxytocin receptors (Homo sapiens, UniProt P30559); assay: Oxytocin receptor binding assay; details: selectivity for V1b over oxytocin receptor, quotient of Ki values
T2 construct: expressed in transfected cells; host or cells: HEK-293, transient expression; lysed and homogenized cells
T2 sequence (P30559 1-389): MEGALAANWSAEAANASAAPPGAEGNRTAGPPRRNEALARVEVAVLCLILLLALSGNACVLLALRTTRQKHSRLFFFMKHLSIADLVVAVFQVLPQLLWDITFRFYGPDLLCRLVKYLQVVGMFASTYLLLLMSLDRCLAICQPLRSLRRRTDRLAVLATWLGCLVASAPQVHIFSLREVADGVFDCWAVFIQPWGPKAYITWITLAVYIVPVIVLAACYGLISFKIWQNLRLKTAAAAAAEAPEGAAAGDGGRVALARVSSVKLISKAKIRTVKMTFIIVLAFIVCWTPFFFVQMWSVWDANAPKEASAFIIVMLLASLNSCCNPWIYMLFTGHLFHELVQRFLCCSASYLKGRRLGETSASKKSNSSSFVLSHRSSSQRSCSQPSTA
Procedure: Oxytocin Receptor Binding Assay
Confluent HEK-293 cells with transiently expressing recombinant human oxytocin receptors were centrifuged at 750×g and at room temperature for 5 minutes. The residue was taken up in ice-cold lysis buffer (50 mM Tris-HCl, 10% glycerol, pH 7.4 and Roche Complete Protease Inhibitor) and subjected to an osmotic shock at 4° C. for 20 minutes. The lyzed cells were then centrifuged at 750×g and at 4° C. for 20 minutes, the residue was taken up in incubation buffer, and aliquots of 10^7 cells/ml were prepared. The aliquots were frozen at −80° C. until used.
On the day of the experiment, the cells were thawed, diluted with incubation buffer and homogenized using a Multipette Combitip (Eppendorf, Hamburg). […] The nonspecific binding was determined with 10^−6 M oxytocin (Bachem AG, H2510). Determinations in triplicate were set up. Bound and free radioligand were separated by filtration under vacuum with Whatman GF/B glass fibre filters using a Skatron cell harvester 7000. The bound radioactivity was determined by liquid scintillation measurement in a Tricarb beta counter, model 2000 or 2200CA (Packard).

[3] = biological target: human vasopressin V1a receptor (Homo sapiens, UniProt P37288); assay: Vasopressin V1a receptor binding assay; details: selectivity for V1b over V1a, quotient of Ki values
Chain of human vasopressin V1a receptor (P37288 whole entry): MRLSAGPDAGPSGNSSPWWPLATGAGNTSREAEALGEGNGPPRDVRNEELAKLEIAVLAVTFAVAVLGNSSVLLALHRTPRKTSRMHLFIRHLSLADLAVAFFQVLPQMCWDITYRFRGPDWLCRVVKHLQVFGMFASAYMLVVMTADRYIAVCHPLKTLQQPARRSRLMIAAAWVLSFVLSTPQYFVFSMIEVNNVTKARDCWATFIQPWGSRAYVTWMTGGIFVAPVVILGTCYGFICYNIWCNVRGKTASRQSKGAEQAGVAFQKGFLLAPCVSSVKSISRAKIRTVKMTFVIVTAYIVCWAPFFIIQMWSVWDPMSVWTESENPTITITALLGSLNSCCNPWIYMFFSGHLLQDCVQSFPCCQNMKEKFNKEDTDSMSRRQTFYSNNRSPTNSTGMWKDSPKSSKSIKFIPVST

[4] = Determination of the microsomal half-life / microsomal clearance (human); assay type: in vitro ADME; details: pH 7.4; human liver microsomes, 0.5 μM test substance, 0.25 mg microsomal protein/ml; read-out: Human Mikrosomal Clearance
Procedure: The metabolic stability of a compound can be determined, for example, by incubating a solution of this compound with liver microsomes from particular species (for example rat, dog or human) and determining the half-life of the compound under these conditions (RS Obach, Curr Opin Drug Discov Devel. 2001, 4, 36-44). It is possible to conclude from an observed larger half-life that the metabolic stability of the compound is improved. The stability in the presence of human liver microsomes is of particular interest since it makes it possible to predict the metabolic degradation of the compound in the human liver. Compounds with increased metabolic stability (determined in the liver microsome test) are therefore probably also degraded more slowly in the liver. The slower metabolic degradation in the liver can lead to higher and/or longer-lasting concentrations (effective levels) of the compound in the body, so that the elimination half-life of the compounds according to the invention is increased. Increased and/or longer-lasting effective levels may lead to a better efficacy of the compound in the treatment or prophylaxis of various vasopressin-dependent diseases. An improved metabolic stability may additionally lead to an increased bioavailability after oral administration, because the compound is subjected, after being absorbed in the intestine, to less metabolic degradation in the liver (so-called first pass effect). An increased oral bioavailability may, because the concentration (effective level) of the compound is increased, lead to a better efficacy of the compound after oral administration.
Determination of the Microsomal Half-Life:
The metabolic stability of the compounds of the invention was determined in the following assay.
The test substances are incubated in a concentration of 0.5 μM as follows:
0.5 μM test substance is preincubated together with liver microsomes of various species (rat, human or other species) (0.25 mg of microsomal protein/ml) in 0.05M potassium phosphate buffer pH 7.4 in microtitre plates at 37° C. for 5 min. The reaction is started by adding NADPH (1 mg/ml). 50 μl aliquots are taken after 0, 5, 10, 15, 20 and 30 min, and the reaction is stopped immediately with the same volume of acetonitrile and cooled down. The samples are frozen until analyzed. Using MSMS, the remaining concentration of undegraded test substance is determined. From the […] of the test substance signal/time unit curve, the half-life (T½) is determined, where the half-life of the test substance can be calculated, assuming first order kinetics, from the decrease in the concentration of the compound with time. The microsomal clearance (mCl) is calculated as mCl=In2/T½/(content of microsomal protein in mg/ml)×1000 [ml/min/mg] (modified according to the literature references: Di, The Society for Biomoleculaur Screening, 2003, 453-462; Obach, DMD, 1999 vol 27. N 11, 1350-1359).

| Structure (SMILES) | Ki [1] [nM] | Ki(h-OT)/Ki(h-V1b) [2] | Ki(h-V1a)/Ki(h-V1b) [3] | microsomal CLint at 0.5 μM [4] [µL/min/mg] |
| --- | --- | --- | --- | --- |
| CCOc1ncccc1C1(NC(=O)N2CCN(C3CCN(C)CC3)CC2)C(=O)N(S(=O)(=O)c2ccccc2OC)c2ccc(C#N)cc21 (racemic) [Example 2, N-{5-Cyano-3-(2-ethoxypyridin-3-yl)-1-[(2-methoxyphenyl)sulphonyl]-2-oxo-2,3-dihydro-1H-indol-3-yl}-4-(1-methylpiperidin-4-yl)piperazine-1-carboxamide] | 10 to 50 | +++ (>50) | +++ (>100) | – |
| CCOc1ccccc1S(=O)(=O)N1C(=O)C(NC(=O)N2CCN(C3CCN(C)CC3)CC2)(c2cccnc2OCC)c2cc(C#N)ccc21.O=C(O)C(F)(F)F (racemic) [Example 3, N-[5-Cyano-1-[(2-ethoxyphenyl)sulphonyl]-3-(2-ethoxypyridin-3-yl)-2-oxo-2,3-dihydro-1H-indol-3-yl]-4-(1-methylpiperidin-4-yl)piperazine-1-carboxamide trifluoroacetate] | 10 to 50 | +++ (>50) | +++ (>100) | – |
| CCOc1ncccc1C1(NC(=O)N2CCN(C3CCN(C)CC3)CC2)C(=O)N(S(=O)(=O)c2ccc(OC)cc2)c2ccc(C#N)cc21 (racemic) [Example 5, N-[5-Cyano-3-(2-ethoxypyridin-3-yl)-1-[(4-methoxyphenyl)sulphonyl]-2-oxo-2,3-dihydro-1H-indol-3-yl]-4-(1-methylpiperidin-4-yl)piperazine-1-carboxamide] | – | – | – | < 60 |
| CCOc1ncccc1C1(NC(=O)N2CCC(N3CCN(C)CC3)CC2)C(=O)N(S(=O)(=O)c2ccccc2OC)c2ccc(C#N)cc21 (racemic) [Example 32, N-[5-Cyano-3-(2-ethoxypyridin-3-yl)-1-[(2-methoxyphenyl)sulphonyl]-2-oxo-2,3-dihydro-1H-indol-3-yl]-4-(4-methylpiperazin-1-yl)piperidine-1-carboxamide] | 10 to 50 | +++ (>50) | + (15-50) | – |
| CCOc1ncccc1C1(NC(=O)N2CCC(N3CCN(C)CC3)CC2)C(=O)N(S(=O)(=O)c2ccccc2)c2ccc(C#N)cc21 (racemic) [Example 34, N-[5-Cyano-3-(2-ethoxypyridin-3-yl)-2-oxo-1-(phenylsulphonyl)-2,3-dihydro-1H-indol-3-yl]-4-(4-methylpiperazin-1-yl)piperidine-1-carboxamide] | – | – | – | < 60 |
| CCCN1CCN(C2CCN(C(=O)NC3(c4cccnc4OCC)C(=O)N(S(=O)(=O)c4ccc(OC)cc4OC)c4ccc(C#N)cc43)CC2)CC1 (racemic) [Example 43, N-[5-Cyano-1-[(2,4-dimethoxyphenyl)sulphonyl]-3-(2-ethoxypyridin-3-yl)-2-oxo-2,3-dihydro-1H-indol-3-yl]-4-(4-propylpiperazin-1-yl)piperidine-1-carboxamide] | < 10 | +++ (>50) | +++ (>100) | – |
| CCOc1ncccc1C1(NC(=O)N2CCC(C3CCN(C)CC3)CC2)C(=O)N(S(=O)(=O)c2ccc(OC)cc2OC)c2ccc(C#N)cc21 (racemic) [Example 61, N-[5-Cyano-1-[(2,4-dimethoxyphenyl)sulphonyl]-3-(2-ethoxypyridin-3-yl)-2-oxo-2,3-dihydro-1H-indol-3-yl]-1′-methyl-4,4′-bipiperidine-1-carboxamide] | < 10 | +++ (>50) | +++ (>100) | – |
| CCOc1ncccc1C1(NC(=O)N2CCC(C3CCN(CC)CC3)CC2)C(=O)N(S(=O)(=O)c2ccc(OC)cc2OC)c2ccc(C#N)cc21.O=C(O)C(F)(F)F (racemic) [Example 67, N-[5-Cyano-1-[(2,4-dimethoxyphenyl)sulphonyl]-3-(2-ethoxypyridin-3-yl)-2-oxo-2,3-dihydro-1H-indol-3-yl]-1′-ethyl-4,4′-bipiperidine-1-carboxamide trifluoroacetate] | < 10 | +++ (>50) | +++ (>100) | – |
| CCOc1ncccc1C1(NC(=O)N2CCC(C3CCN(C)CC3)CC2)C(=O)N(S(=O)(=O)c2ccc(OC)cc2OC)c2ccc(C#N)cc21.O=C(O)C(F)(F)F (single isomer, unassigned) [Example 61B, (−)-N-[5-Cyano-1-[(2,4-dimethoxyphenyl)sulphonyl)-3-(2-ethoxypyridin-3-yl)-2-oxo-2,3-dihydro-1H-indol-3-yl]-1′-methyl-4,4′-bipiperidine-1-carboxamide trifluoroacetate] | – | +++ (>50) | +++ (>100) | – |
| CCOc1ncccc1[C@]1(NC(=O)N2CCC(C3CCN(C)CC3)CC2)C(=O)N(S(=O)(=O)c2ccc(OC)cc2OC)c2ccc(C#N)cc21 (single isomer, unassigned) [Example 61B, (−)-N-[5-Cyano-1-[(2,4-dimethoxyphenyl)sulphonyl)-3-(2-ethoxypyridin-3-yl)-2-oxo-2,3-dihydro-1H-indol-3-yl]-1′-methyl-4,4′-bipiperidine-1-carboxamide trifluoroacetate] | < 10 | – | – | < 60 |
| CCOc1ncccc1C1(NC(=O)N2CCC(C3CCN(CC)CC3)CC2)C(=O)N(S(=O)(=O)c2ccc(OC)cc2OC)c2ccc(C#N)cc21.O=C(O)C(F)(F)F (single isomer, unassigned) [Example 67B, (−)-N-[5-Cyano-1-[(2,4-dimethoxyphenyl)sulphonyl]-3-(2-ethoxypyridin-3-yl)-2-oxo-2,3-dihydro-1H-indol-3-yl]-1′-ethyl-4,4′-bipiperidine-1-carboxamide trifluoroacetate] | < 10 | +++ (>50) | +++ (>100) | – |
